Data as given in ChEMBL document CHEMBL5226375, “Synthesis and Comprehensive in Vivo Activity Profiling of Olean-12-en-28-ol, 3β-Pentacosanoate in Experimental Autoimmune Encephalomyelitis: A Natural Remyelinating and Anti-Inflammatory Agent” (J Nat Prod, 2023).
Calls of active or inactive are those of the source. The rule behind the calls is not given here.

Legend:
Mus musculus [1] = test: Anti-inflammatory activity against MOG35-55-induced experimental autoimmune encephalomyelitis C57BL/6 mouse model assessed as fold change in CXCL9 gene expression in brain at 600 mg/kg/day, ig for 14 days starting from 12th day of immunization by RT-qPCR analysis relative to control; assay type: functional; details: time 14 day
Mus musculus [2] = test: Anti-inflammatory activity against MOG35-55-induced experimental autoimmune encephalomyelitis C57BL/6 mouse model assessed as fold change in IL6 gene expression in brain at 600 mg/kg/day, ig for 14 days starting from 12th day of immunization by RT-qPCR analysis relative to control; assay type: functional; details: time 14 day
Mus musculus [3] = test: Anti-inflammatory activity against MOG35-55-induced experimental autoimmune encephalomyelitis C57BL/6 mouse model assessed as fold change in MMP9 gene expression in brain at 600 mg/kg/day, ig for 14 days starting from 12th day of immunization by RT-qPCR analysis relative to control; assay type: functional; details: time 14 day
Mus musculus [4] = test: Anti-inflammatory activity against MOG35-55-induced experimental autoimmune encephalomyelitis C57BL/6 mouse model assessed as fold change in H2EB1 (HLA-DRB1) gene expression in brain at 600 mg/kg/day, ig for 14 days starting from 12th day of immunization by RT-qPCR analysis relative to control; assay type: functional; details: time 14 day
Mus musculus [5] = test: Anti-inflammatory activity against MOG35-55-induced experimental autoimmune encephalomyelitis C57BL/6 mouse model assessed as fold change in APP gene expression in brain at 600 mg/kg/day, ig for 14 days starting from 12th day of immunization by RT-qPCR analysis relative to control; assay type: functional; details: time 14 day
Mus musculus [6] = test: Anti-inflammatory activity against MOG35-55-induced experimental autoimmune encephalomyelitis C57BL/6 mouse model assessed as fold change in MAG gene expression in brain at 300 mg/kg/day, ig for 14 days starting from 12th day of immunization by RT-qPCR analysis relative to control; assay type: functional; details: time 14 day
Mus musculus [7] = test: Anti-inflammatory activity against MOG35-55-induced experimental autoimmune encephalomyelitis C57BL/6 mouse model assessed as fold change in PLP gene expression in brain at 300 mg/kg/day, ig for 14 days starting from 12th day of immunization by RT-qPCR analysis relative to control; assay type: functional; details: time 14 day
Mus musculus [8] = test: Anti-inflammatory activity against MOG35-55-induced experimental autoimmune encephalomyelitis C57BL/6 mouse model assessed as fold change in APP gene expression in brain at 300 mg/kg/day, ig for 14 days starting from 12th day of immunization by RT-qPCR analysis relative to control; assay type: functional; details: time 14 day
Mus musculus [9] = test: Anti-inflammatory activity against MOG35-55-induced experimental autoimmune encephalomyelitis C57BL/6 mouse model assessed as reduction in MMP9 protein expression in brain at 300 to 600 mg/kg/day, ig for 14 days starting from 12th day of immunization by western blot analysis relative to control; assay type: functional; details: dose 300-600 mg/kg/day, time 14 day
Mus musculus [10] = test: Anti-inflammatory activity against MOG35-55-induced experimental autoimmune encephalomyelitis C57BL/6 mouse model assessed as proportion of brain infiltrating cells expressing CD45+/CD11b/c high surface markers at 600 mg/kg/day, ig for 14 days starting from 12th day of immunization by flow cytometry (reference value: 87.7%); assay type: functional; details: time 14 day
Mus musculus [11] = test: Anti-inflammatory activity against MOG35-55-induced experimental autoimmune encephalomyelitis C57BL/6 mouse model assessed as reduction in serum chemokines level by measuring reduction in […] level at 600 mg/kg/day, ig for 14 days starting from 12th day of immunization by ELISA; assay type: functional, organism-based; details: time 14.0 day
Mus musculus [12] = test: Anti-inflammatory activity against MOG35-55-induced experimental autoimmune encephalomyelitis C57BL/6 mouse model assessed as methylation of CpG sites of IL17A gene promoter in brain at 600 mg/kg, ig for 14 days starting from 12th day of immunization by PCR analysis (reference value: 58 +/-6%); assay type: functional; details: time 14 day
Mus musculus [13] = test: Anti-inflammatory activity against MOG35-55-induced experimental autoimmune encephalomyelitis C57BL/6 mouse model assessed as fold change in HIF1A gene expression in brain at 0.3 mg/kg/day, ig for 14 days starting from 12th day of immunization by RT-qPCR analysis relative to control; assay type: functional; details: time 14 day
Mus musculus [14] = test: Anti-inflammatory activity against MOG35-55-induced experimental autoimmune encephalomyelitis C57BL/6 mouse model assessed as fold change in TNF-alpha gene expression in brain at 0.3 mg/kg/day, ig for 14 days starting from 12th day of immunization by RT-qPCR analysis relative to control; assay type: functional; details: time 14 day
Mus musculus [15] = test: Anti-inflammatory activity against MOG35-55-induced experimental autoimmune encephalomyelitis C57BL/6 mouse model assessed as fold change in MAG gene expression in brain at 0.3 mg/kg/day, ig for 14 days starting from 12th day of immunization by RT-qPCR analysis relative to control; assay type: functional; details: time 14 day
Mus musculus [16] = test: Anti-inflammatory activity against MOG35-55-induced experimental autoimmune encephalomyelitis C57BL/6 mouse model assessed as fold change in MBP gene expression in brain at 0.3 mg/kg/day, ig for 14 days starting from 12th day of immunization by RT-qPCR analysis relative to control; assay type: functional; details: time 14 day
Mus musculus [17] = test: Anti-inflammatory activity against MOG35-55-induced experimental autoimmune encephalomyelitis C57BL/6 mouse model assessed as fold change in PLP gene expression in brain at 0.3 mg/kg/day, ig for 14 days starting from 12th day of immunization by RT-qPCR analysis relative to control; assay type: functional; details: time 14 day
Mus musculus [18] = test: Anti-inflammatory activity against MOG35-55-induced experimental autoimmune encephalomyelitis C57BL/6 mouse model assessed as fold change in APP gene expression in brain at 0.3 mg/kg/day, ig for 14 days starting from 12th day of immunization by RT-qPCR analysis relative to control; assay type: functional; details: time 14 day
Mus musculus [19] = test: Anti-inflammatory activity against MOG35-55-induced experimental autoimmune encephalomyelitis C57BL/6 mouse model assessed as fold change in HIF1A gene expression in brain at 0.15 mg/kg/day, ig for 14 days starting from 12th day of immunization by RT-qPCR analysis relative to control; assay type: functional; details: time 14 day
Mus musculus [20] = test: Anti-inflammatory activity against MOG35-55-induced experimental autoimmune encephalomyelitis C57BL/6 mouse model assessed as fold change in STAT3 gene expression in brain at 0.15 mg/kg/day, ig for 14 days starting from 12th day of immunization by RT-qPCR analysis relative to control; assay type: functional; details: time 14 day
Mus musculus [21] = test: Anti-inflammatory activity against MOG35-55-induced experimental autoimmune encephalomyelitis C57BL/6 mouse model assessed as upregulation of PLP protein expression in brain at 0.15 to 0.3 mg/kg/day, ig for 14 days starting from 12th day of immunization by western blot analysis; assay type: functional, organism-based; details: dose 0.15-0.3 mg/kg/day, time 14.0 day
Mus musculus [22] = test: Anti-inflammatory activity against MOG35-55-induced experimental autoimmune encephalomyelitis C57BL/6 mouse model assessed as upregulation of MBP protein expression in brain at 0.15 to 0.3 mg/kg/day, ig for 14 days starting from 12th day of immunization by western blot analysis; assay type: functional, organism-based; details: dose 0.15-0.3 mg/kg/day, time 14.0 day
Mus musculus [23] = test: Anti-inflammatory activity against MOG35-55-induced experimental autoimmune encephalomyelitis C57BL/6 mouse model assessed as reduction in serum chemokines level by measuring reduction in […] level at 0.3 mg/kg/day, ig for 14 days starting from 12th day of immunization by ELISA; assay type: functional, organism-based; details: time 14.0 day

CCCCCCCCCCCCCCCCCCCCCCCCC(=O)O[C@H]1CC[C@]2(C)[C@H]3CC=C4[C@@H]5CC(C)(C)CC[C@]5(CO)CC[C@@]4(C)[C@]3(C)CC[C@H]2C1(C)C
fold change (FC) (Mus musculus [1]): -1.14 | fold change (FC) (Mus musculus [2]): -2.32 | fold change (FC) (Mus musculus [3]): 2.8 | fold change (FC) (Mus musculus [4]): 11.4 | fold change (FC) (Mus musculus [5]): 1.28 | fold change (FC) (Mus musculus [6]): 1.54 | fold change (FC) (Mus musculus [7]): 1.9 | fold change (FC) (Mus musculus [8]): -1.56 | fold change (FC) (Mus musculus [9]): 2 | Activity (Mus musculus [10]): 66.2% | Activity (Mus musculus [11]): Active | Activity (Mus musculus [12]): 68.3%

CCCCCCCCc1ccc(CCC(N)(CO)CO)cc1 [FINGOLIMOD]
fold change (FC) (Mus musculus [13]): 1.86 | fold change (FC) (Mus musculus [14]): -1.46 | fold change (FC) (Mus musculus [15]): -3.16 | fold change (FC) (Mus musculus [16]): 2.28 | fold change (FC) (Mus musculus [17]): -2.32 | fold change (FC) (Mus musculus [18]): 1.72 | fold change (FC) (Mus musculus [19]): 2.49 | fold change (FC) (Mus musculus [20]): 1.96 | Activity (Mus musculus [21]): inactive | Activity (Mus musculus [22]): inactive | Activity (Mus musculus [23]): Active
